# From patent US7727977B2, “Kynurenine 3-hydroxylase inhibitors for the treatment of diabetes” (Merck Patent Gesellschaft mit beschrankter Haftung, priority 2003, dated 2010)
# Marks after values point to notes of the source that are not given here.
# Key:
# kynurenine 3-hydroxylase = molecular target: T1, kynurenine 3-hydroxylase (Rattus norvegicus, UniProt O88867); test: Inhibitory activity on kynurenine 3-hydroxylase in rat liver homogenate; type: biochemical; conditions: test concentration not given
# T1 construct: incubating 10 μL of the homogenate with NADPH (2 mM), kynurenine (100 μM); from tissue; host or cells: rat liver (pellet of the homogenate, resuspended)
# Experimental: Study of the Inhibitory Activity on Kynurenine 3-hydroxylase in Rat Liver
# Rat livers are homogenised (1:8 weight/volume) in a buffer solution comprising: • 0.25 M sucrose • 50 mM pH 7.4 Tris; • 1 mM EDTA; and • 1 mM DTT.
# The homogenates are centrifuged for 10 minutes at 12 000 rpm. The pellets are resuspended in the buffer solution described above (1:2 weight/volume).
# The kynurenine 3-hydroxylase inhibition is determined by incubating 10 μL of the homogenate with NADPH (2 mM), kynurenine (100 μM) and various concentrations of the test compounds in a final volume of 100 μL at 37° C. for 5 minutes.
# The compounds are tested at concentrations of between 1 μM and 300 μM. 3,4-Dimethoxy-N-[4-(3-nitrophenyl)thiazol-2-yl]benzenesulfonamide is a compound from the company Hoffmann-LaRoche (Basle, see J. Med. Chem., 40 (1997), 4738). 30H-Kynurenine was tested according to the protocol described by Carpendo et al. (Neuroscience, 61 (1994), 237-244).
# Each of the experiments is repeated once and the IC50 values (in μmol/L) are calculated and given in the form of a mean of these two experiments.
# Results concerning representative examples of family Ih are given in Table II below, in which is indicated the measurement of the percentage of remaining kynurenine 3-hydroxylase activity relative to the control (100%).
# primary hepatocytes [1] = test: Hepatic glucose production, basal lactate/pyruvate 2 hours, in primary hepatocytes; type: cell-based, Wistar rats; parameters: Hepatic glucose production: unit not given here; conditions: for hepatic glucose production in vitro (result in words): primary rat hepatocytes, summary of Tables III and IV; for HGP % of control: Basal Lact/Pyr 2 hours
# Experimental: (§1) Study of the Effect on Glucose Production by the Liver Materials and Method:
# After washing in pH 7.4 PBS buffer, the cells are incubated for two hours at 37° C. in a Krebs buffer free of glucose and of insulin, containing lactate/pyruvate (10/1 mM) in the presence or absence of the test compounds. 10 μM MICA (5-methoxyindole-2-carboxylic acid) is used as reference substance. Two identical experiments are performed (Table III-2).
# The protein assay is performed on the rest of the incubation medium via the Lowry method (BIO-RAD Dc protein assay, BIO-RAD 5000116).
# (§2) The results are expressed as nmoles of glucose produced per […] of proteins. The statistical test used is the t test.
# [2] = test system: perfused isolated pancreases from N0 STZ diabetic rats; test: Secretion of insulin and glucagon in perfused isolated pancreases from N0 STZ diabetic rats; type: cell-based; conditions: absence of glucose, then 16.5 mM glucose; diabetic rat pancreas
# Source text: Study of the Effect on the Secretion of the Pancreatic Hormones Insulin and Glucagon, in N0STZ Diabetic Rats
# The results are expressed as the mean±SEM (standard error of mean) of several experiments. The statistical test used is the Scheffé test.
# primary hepatocytes [3] = test: Hepatic glucose production stimulated by AMPc/DEX in primary hepatocytes; type: cell-based, Wistar rats
# Experimental: as §1
# The hepatocytes are isolated from the liver of Wistar rats fasted for 24 hours, according to the method described in Methods Cell Biol., 13 (1975), 29-83.
# 1) The hepatocytes are cultured for 16 to 18 hours in DMEM medium in the presence of AMP cyclase/dexamethasone at respective concentrations of 5×10^−5 M and 5×10^−7 M, with preincubation of the products at the test doses. After washing in pH 7.4 PBS buffer, the cells are incubated for three hours at 37° C. in a Krebs/AMPc/DEX buffer at the abovementioned concentrations. 0.1 μM insulin is used as reference substance. Two identical experiments are performed (Table III-1).
# Quantification of the glucose is performed via a colorimetric method using glucose oxidase (IL test™ Glucose, Monarch 181633-80). The protein assay is performed on the rest of the incubation medium via the Lowry method (BIO-RAD Dc protein assay, BIO-RAD 5000116).
# as §2
# T1 sequence (O88867 whole entry): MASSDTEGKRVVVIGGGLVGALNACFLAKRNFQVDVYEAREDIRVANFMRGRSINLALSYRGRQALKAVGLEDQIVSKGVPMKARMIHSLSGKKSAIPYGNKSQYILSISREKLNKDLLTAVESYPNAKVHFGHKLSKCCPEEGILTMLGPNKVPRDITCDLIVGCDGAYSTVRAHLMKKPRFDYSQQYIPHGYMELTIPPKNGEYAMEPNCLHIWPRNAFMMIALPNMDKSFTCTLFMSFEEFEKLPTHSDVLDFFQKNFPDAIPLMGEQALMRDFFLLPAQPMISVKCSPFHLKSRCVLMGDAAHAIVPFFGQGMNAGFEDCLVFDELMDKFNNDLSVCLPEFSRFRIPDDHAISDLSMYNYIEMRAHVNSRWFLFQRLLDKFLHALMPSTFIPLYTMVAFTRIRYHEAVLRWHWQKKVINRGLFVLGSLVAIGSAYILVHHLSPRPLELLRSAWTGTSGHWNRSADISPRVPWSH
Molecule,Remaining kynurenine 3-hydroxylase activity (% of control) (kynurenine 3-hydroxylase) [%],further results
2-(2′-naphthylthio)-4-(4′-chlorophenyl)-4-oxobutanoic acid [Ih-30],24.3,
"O=C(C[C@@H](Cc1ccccc1)C(=O)O)c1ccc(Cl)c(Cl)c1 (racemic) [Compound j, (R,S)-2-benzyl-4-(3′,4′-dichlorophenyl)-4-oxobutanoic acid]",,Inhibition of hepatic glucose production (primary hepatocytes [1]; 1 μM): 30** %; Inhibition of hepatic glucose production (primary hepatocytes [1]; 10 μM): 51** %; Inhibition of hepatic glucose production (primary hepatocytes [1]; 100 μM): 65** %; hepatic glucose production in vitro (result in words) (primary hepatocytes [1]): powerful inhibitors of hepatic glucose production in vitro
Nc1ccccc1C(=O)CC(N)C(=O)O (stereo not drawn) [Kynurenine],,hepatic glucose production in vitro (result in words) (primary hepatocytes [1]): powerful inhibitors of hepatic glucose production in vitro; glucagon secretion (result in words) [2]: stimulated; insulin secretion (result in words) [2]: stimulated
"COc1ccc(C(=O)CC(SC2CCCCC2)C(=O)O)cc1 (stereo not drawn) [Ih-23, 2-cyclohexylthio-4-(4′-methoxyphenyl)-4-oxobutanoic acid]",38.1,
"O=C(CC(Sc1ccc(Cl)cc1)C(=O)O)c1ccc(Cl)cc1 (stereo not drawn) [Ih-27, 2-(4′-chlorophenylthio)-4-(4′-chlorophenyl)-4-oxobutanoic acid]",34.9,
"CCOC(=O)C(CC(=O)c1ccccc1)Sc1ccc(OC)cc1 (stereo not drawn) [Ih-13, ethyl 2-(4′-methoxyphenylthio)-4-phenyl-4-oxobutanoate]",55.2,
"CCOC(=O)C(CC(=O)c1ccccc1)Sc1ccc(F)cc1 (stereo not drawn) [Ih-10, ethyl 2-(4′-fluorophenylthio)-4-phenyl-4-oxobutanoate]",66.7,
"Cc1ccc(SC(CC(=O)c2ccccc2)C(=O)O)cc1 (stereo not drawn) [Ih-5, 2-(4′-methylphenylthio)-4-phenyl-4-oxobutanoic acid]",45.4,
ethyl 2-(2′-naphthylthio)-4-phenyl-4-oxobutanoate [Ih-14],30.0,
O=C(O)c1cc(=O)c2ccccc2[nH]1 [Kynurenic acid],,glucagon secretion (result in words) [2]: stimulates; insulin secretion (result in words) [2]: stimulates the secretion of insulin
"N[C@@H](Cc1c[nH]c2ccccc12)C(=O)O [Tryptophan, reference compound]",,hepatic glucose production in vitro (result in words) (primary hepatocytes [1]): powerful inhibitors of hepatic glucose production in vitro; glucagon secretion (result in words) [2]: stimulates glucagon secretion in a glucose-dependent manner; insulin secretion (result in words) [2]: stimulates insulin secretion in a glucose-dependent manner
"COc1ccc(C(=O)CC(Sc2ccc(F)cc2)C(=O)O)cc1 (stereo not drawn) [Ih-18, 2-(4′-fluorophenylthio)-4-(4′-methoxyphenyl)-4-oxobutanoic acid]",6.6,
"COc1ccc(SC(CC(=O)c2ccc(OC)cc2)C(=O)O)cc1 (stereo not drawn) [Ih-21, 2-(4′-methoxyphenylthio)-4-(4′-methoxyphenyl)-4-oxobutanoic acid]",17.4,
2-(2′-naphthylthio)-4-phenyl-4-oxobutanoic acid [Ih-1],23.2,HGP % of control (primary hepatocytes [3]; 1 μM): 103 % of control; HGP % of control (primary hepatocytes [3]; 10 μM): 83 % of control; HGP % of control (primary hepatocytes [3]; 100 μM): 15 % of control; HGP % of control (primary hepatocytes [1]; 1 μM): 10 % of control; HGP % of control (primary hepatocytes [1]; 10 μM): 127 % of control; HGP % of control (primary hepatocytes [1]; 100 μM): 95 % of control; hepatic glucose production in vitro (result in words) (primary hepatocytes [1]): powerful inhibitors of hepatic glucose production in vitro
"O=C(CC(Sc1ccc(Cl)cc1)C(=O)O)c1ccccc1 (stereo not drawn) [Ih-4, 2-(4′-chlorophenylthio)-4-phenyl-4-oxobutanoic acid]",34.8,
"O=C(CC(SC1CCCCC1)C(=O)O)c1ccccc1 (stereo not drawn) [Ih-7, 2-cyclohexylthio-4-phenyl-4-oxobutanoic acid]",81.3,
"CCOC(=O)C(CC(=O)c1ccccc1)SC1CCCCC1 (stereo not drawn) [Ih-15, ethyl 2-cyclohexylthio-4-phenyl-4-oxobutanoate]",95.0,

Molecule,Remaining kynurenine 3-hydroxylase activity (% of control) (kynurenine 3-hydroxylase) [%],further results
"COc1ccc(C(=O)CC(SCc2ccccc2)C(=O)O)cc1 (stereo not drawn) [Ih-24, 2-benzylthio-4-(4′-methoxyphenyl)-4-oxobutanoic acid]",18.9,
"CCOC(=O)C(CC(=O)c1ccccc1)SCc1ccccc1 (stereo not drawn) [Ih-16, ethyl 2-benzylthio-4-phenyl-4-oxobutanoate]",84.4,
"CCOC(=O)C(CC(=O)c1ccccc1)Sc1ccc(Cl)cc1 (stereo not drawn) [Ih-11, ethyl 2-(4′-chlorophenylthio)-4-phenyl-4-oxobutanoate]",44.6,
"CCOC(=O)C(CC(=O)c1ccccc1)Sc1ccccc1 (stereo not drawn) [Ih-9, ethyl 2-phenylthio-4-phenyl-4-oxobutanoate]",80.8,
"O=C(C[C@@H](Cc1ccccc1)C(=O)O)c1ccc(F)cc1 [Compound i, (R)-2-benzyl-4-(4-fluorophenyl)-4-oxobutanoic acid]",,Hepatic glucose production (primary hepatocytes [1]; 1 μM): 88 ± 7; Hepatic glucose production (primary hepatocytes [1]; 10 μM): 73 ± 4; Hepatic glucose production (primary hepatocytes [1]; 100 μM): 39 ± 3; hepatic glucose production in vitro (result in words) (primary hepatocytes [1]): powerful inhibitors of hepatic glucose production in vitro; glucagon secretion (result in words) [2]: stimulation; insulin secretion (result in words) [2]: stimulation
"COc1ccc(C(=O)CC(Sc2ccccc2)C(=O)O)cc1 (stereo not drawn) [Ih-17, 2-phenylthio-4-(4′-methoxyphenyl)-4-oxobutanoic acid]",16.0,
"COc1ccc(C(=O)CC(Sc2ccc(Cl)cc2)C(=O)O)cc1 (stereo not drawn) [Ih-19, 2-(4′-chlorophenylthio)-4-(4′-methoxyphenyl)-4-oxobutanoic acid]",4.1,
"CCOC(=O)C(CC(=O)c1ccccc1)Sc1ccc(C)cc1 (stereo not drawn) [Ih-12, ethyl 2-(4′-methylphenylthio)-4-phenyl-4-oxobutanoate]",63.3,
"O=C(CC(SCc1ccccc1)C(=O)O)c1ccccc1 (stereo not drawn) [Ih-8, 2-benzylthio-4-phenyl-4-oxobutanoic acid]",68.6,
"COc1ccc(C(=O)CC(Sc2ccc(C)cc2)C(=O)O)cc1 (stereo not drawn) [Ih-20, 2-(4′-methylphenylthio)-4-(4′-methoxyphenyl)-4-oxobutanoic acid]",13.3,
"O=C(CC(Sc1ccccc1)C(=O)O)c1ccccc1 (stereo not drawn) [Ih-2, 2-phenylthio-4-phenyl-4-oxobutanoic acid]",70.4,
"O=C(CC(Sc1ccc(F)cc1)C(=O)O)c1ccccc1 (stereo not drawn) [Ih-3, 2-(4′-fluorophenylthio)-4-phenyl-4-oxobutanoic acid]",50.4,
"O=C(CC(Sc1ccccc1)C(=O)O)c1ccc(Cl)cc1 (stereo not drawn) [Ih-25, 2-phenylthio-4-(4′-chlorophenyl)-4-oxobutanoic acid]",67.6,
"O=C(CC(Sc1ccc(F)cc1)C(=O)O)c1ccc(Cl)cc1 (stereo not drawn) [Ih-26, 2-(4′-fluorophenylthio)-4-(4′-chlorophenyl)-4-oxobutanoic acid]",55.5,
"COc1ccc(S(=O)(=O)Nc2nc(-c3cccc([N+](=O)[O-])c3)cs2)cc1OC [Compound k, 3,4-dimethoxy-N-[4-(3-nitrophenyl)thiazol-2-yl]benzenesulfonamide, reference compound]",,glucagon secretion (result in words) [2]: stimulation; insulin secretion (result in words) [2]: stimulation
"Cc1ccc(SC(CC(=O)c2ccc(Cl)cc2)C(=O)O)cc1 (stereo not drawn) [Ih-28, 2-(4′-methylphenylthio)-4-(4′-chlorophenyl)-4-oxobutanoic acid]",50.5,
